Assay results taken from US20110086759A1, “CHEMICAL COMPOUNDS” (SYNGENTA CROP PROTECTION, INC., priority 2007, published 2011).

Experiments:
Format in all cases: in vivo
Setaria faberi (SETFA) [1] = assay: Post-emergence biological efficacy, glasshouse pot test; details: 312 h
Method in brief: (§1)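 Scored 13 days after spraying on a 0 (no damage) to 100 (total damage) scale. Treatment was a post-emergence spray at 1000 or 250 g/ha, from acetone/water 50:50 plus 0.5% Tween 20, onto 8-day-old plants in soil pots. Growth at 24/16° C, 14 h photoperiod, 65% humidity, watered twice daily.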

[2] = test system: Alopecurus myosuroides (ALOMY); assay: as above; details: 312 h
Method in brief: as §1

Solanum nigrum (SOLNI) [3] = assay: as above; details: 312 h
Method in brief: as §1

[4] = test system: Echinochloa crus-galli (ECHCG); assay: as above; details: 312 h
Method in brief: as §1

[5] = test system: Ipomea hederaceae (IPOHE); assay: as above; details: Ipomoea hederacea, 312 h
Method in brief: as §1

[6] = test system: Amaranthus retoflexus (AMARE); assay: as above; details: Amaranthus retroflexus, 312 h
Method in brief: as §1

Setaria faberi (SETFA) [7] = assay: Pre-emergence biological efficacy, glasshouse pot test; details: 312 h
Method in brief: (§2)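 Standard soil, pots, sown then sprayed at day 1 with 1000 or 250 g/ha test compound. Glasshouse: 24/16 °C, 14 h photoperiod, 65% humidity, twice-daily watering. Evaluation day 13, 0–100 damage score.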

[8] = test system: Alopecurus myosuroides (ALOMY); assay: as above; details: 312 h
Method in brief: as §2

Solanum nigrum (SOLNI) [9] = assay: as above; details: 312 h
Method in brief: as §2

[10] = test system: Echinochloa crus-galli (ECHCG); assay: as above; details: 312 h
Method in brief: as §2

[11] = test system: Ipomea hederaceae (IPOHE); assay: as above; details: Ipomoea hederacea, 312 h
Method in brief: as §2

[12] = test system: Amaranthus retoflexus (AMARE); assay: as above; details: Amaranthus retroflexus, 312 h
Method in brief: as §2

[13] = post-emergence, 1,000 g/ha, evaluated after 13 days (100=total damage; 0=no damage), read-out: Percentage damage caused to weed species, SETFA
[14] = post-emergence, 1,000 g/ha, evaluated after 13 days (100=total damage; 0=no damage), read-out: Percentage damage caused to weed species, ALOMY
[15] = post-emergence, 1,000 g/ha, evaluated after 13 days (100=total damage; 0=no damage), read-out: Percentage damage caused to weed species, SOLNI
[16] = post-emergence, 1,000 g/ha, evaluated after 13 days (100=total damage; 0=no damage), read-out: Percentage damage caused to weed species, ECHCG
[17] = post-emergence, 1,000 g/ha, evaluated after 13 days (100=total damage; 0=no damage), read-out: Percentage damage caused to weed species, IPOHE
[18] = post-emergence, 1,000 g/ha, evaluated after 13 days (100=total damage; 0=no damage), read-out: Percentage damage caused to weed species, AMARE
[19] = pre-emergence, 1,000 g/ha, evaluated after 13 days (100=total damage; 0=no damage), read-out: Percentage damage SETFA
[20] = pre-emergence, 1,000 g/ha, evaluated after 13 days (100=total damage; 0=no damage), read-out: Percentage damage ALOMY
[21] = pre-emergence, 1,000 g/ha, evaluated after 13 days (100=total damage; 0=no damage), read-out: Percentage damage SOLNI
[22] = pre-emergence, 1,000 g/ha, evaluated after 13 days (100=total damage; 0=no damage), read-out: Percentage damage ECHCG
[23] = pre-emergence, 1,000 g/ha, evaluated after 13 days (100=total damage; 0=no damage), read-out: Percentage damage IPOHE
[24] = pre-emergence, 1,000 g/ha, evaluated after 13 days (100=total damage; 0=no damage), read-out: Percentage damage AMARE
[25] = Rate 1,000 g/ha, post-emergence spray, evaluated after 13 days (100=total damage to plant; 0=no damage to plant), read-out: Percentage damage caused to weed species, post-emergence, SETFA
[26] = Rate 1,000 g/ha, post-emergence spray, evaluated after 13 days (100=total damage to plant; 0=no damage to plant), read-out: Percentage damage caused to weed species, post-emergence, ALOMY
[27] = Rate 1,000 g/ha, post-emergence spray, evaluated after 13 days (100=total damage to plant; 0=no damage to plant), read-out: Percentage damage caused to weed species, post-emergence, SOLNI
[28] = Rate 1,000 g/ha, post-emergence spray, evaluated after 13 days (100=total damage to plant; 0=no damage to plant), read-out: Percentage damage caused to weed species, post-emergence, ECHCG
[29] = Rate 1,000 g/ha, post-emergence spray, evaluated after 13 days (100=total damage to plant; 0=no damage to plant), read-out: Percentage damage caused to weed species, post-emergence, IPOHE
[30] = Rate 1,000 g/ha, post-emergence spray, evaluated after 13 days (100=total damage to plant; 0=no damage to plant), read-out: Percentage damage caused to weed species, post-emergence, AMARE
[31] = pre-emergence, rate 1,000 g/ha, evaluated after 13 days (100=total damage to plant; 0=no damage), read-out: Percentage damage caused to weed species, SETFA
[32] = pre-emergence, rate 1,000 g/ha, evaluated after 13 days (100=total damage to plant; 0=no damage), read-out: Percentage damage caused to weed species, ALOMY
[33] = pre-emergence, rate 1,000 g/ha, evaluated after 13 days (100=total damage to plant; 0=no damage), read-out: Percentage damage caused to weed species, SOLNI
[34] = pre-emergence, rate 1,000 g/ha, evaluated after 13 days (100=total damage to plant; 0=no damage), read-out: Percentage damage caused to weed species, ECHCG
[35] = pre-emergence, rate 1,000 g/ha, evaluated after 13 days (100=total damage to plant; 0=no damage), read-out: Percentage damage caused to weed species, IPOHE
[36] = pre-emergence, rate 1,000 g/ha, evaluated after 13 days (100=total damage to plant; 0=no damage), read-out: Percentage damage caused to weed species, AMARE

Structure (SMILES) | pest or weed control at 1000 g/ha (Setaria faberi (SETFA) [1]; [13]) | pest or weed control at 1000 g/ha [2, 14] | pest or weed control at 1000 g/ha (Solanum nigrum (SOLNI) [3]; [15]) | pest or weed control at 1000 g/ha [4, 16] | pest or weed control at 1000 g/ha [5, 17] | pest or weed control at 1000 g/ha [6, 18] | pest or weed control at 1000 g/ha (Setaria faberi (SETFA) [7]; [19]) | pest or weed control at 1000 g/ha [8, 20] | pest or weed control at 1000 g/ha (Solanum nigrum (SOLNI) [9]; [21]) | pest or weed control at 1000 g/ha [10, 22] | pest or weed control at 1000 g/ha [11, 23] | pest or weed control at 1000 g/ha [12, 24] | pest or weed control at 1000 g/ha (Setaria faberi (SETFA) [1]; [25]) | pest or weed control at 1000 g/ha [2, 26] | pest or weed control at 1000 g/ha (Solanum nigrum (SOLNI) [3]; [27]) | pest or weed control at 1000 g/ha [4, 28] | pest or weed control at 1000 g/ha [5, 29] | pest or weed control at 1000 g/ha [6, 30] | pest or weed control at 1000 g/ha (Setaria faberi (SETFA) [7]; [31]) | pest or weed control at 1000 g/ha [8, 32] | also measured
CCCC(F)(CNc1nc(C2CC2)nc(C(=O)OC)c1Cl)c1ccc(Cl)cc1Cl (stereo not drawn) [Compound 4-244, 5-Chloro-2-cyclopropyl-4-[2-(2,4-dichloro-phenyl)-2-fluoro-pentylamino]-6-methoxycarbonyl-pyrimidine] | 0% | 0% | 20% | 0% | 50% | 20% | 0% | 0% | 0% | 0% | 0% | 30% |  |  |  |  |  |  |  |  | 
COC(=O)c1nc(C2CC2)nc(N(C)Cc2ccc(F)cc2)c1Cl [Compound 5-66, 5-Chloro-2-cyclopropyl-4-[N-(4-fluorophenylmethyl)-N-methyl-amino]-6-methoxy-carbonylpyrimidine] |  |  |  |  |  |  |  |  |  |  |  |  | 80% | 20% | 90% | 40% | 100% | 100% | 60% | 30% | pest or weed control at 1000 g/ha (Solanum nigrum (SOLNI) [9]; [33]): 60%; pest or weed control at 1000 g/ha [10, 34]: 40%; pest or weed control at 1000 g/ha [11, 35]: 70%; pest or weed control at 1000 g/ha [12, 36]: 100%
COC(=O)c1nc(C2CC2)nc(NC2(c3ccccn3)CC2)c1Cl [Compound 4-10, 5-Chloro-2-cyclopropyl-6-methoxycarbonyl-4-(1-pyrid-2-ylcyclo-propylamino)-pyrimidine] | 0% | 20% | 40% | 0% | 50% | 60% | 0% | 0% | 20% | 0% | 80% | 30% |  |  |  |  |  |  |  |  | 
COC(=O)c1nc(-c2ccc(Cl)cc2C)nc(NCc2ccco2)c1Cl [Compound 213-48, 5-Chloro-2-(4-chloro-2-methylphenyl)-4-(furan-2-yl-methyl-amino)-6-methoxy-carbonylpyrimidine] |  |  |  |  |  |  |  |  |  |  |  |  | 10% | 0% | 10% | 0% | 0% | 100% | 10% | 10% | pest or weed control at 1000 g/ha (Solanum nigrum (SOLNI) [9]; [33]): 0%; pest or weed control at 1000 g/ha [10, 34]: 0%; pest or weed control at 1000 g/ha [11, 35]: 0%; pest or weed control at 1000 g/ha [12, 36]: 70%
COC(=O)c1nc(C2CC2)nc(NCCc2cccs2)c1Cl [Compound 4-224, 5-Chloro-2-cyclopropyl-6-methoxycarbonyl-4-[2-(thiophen-2-yl)ethylamino]-pyrimidine] | 30% | 10% | 70% | 10% | 50% | 100% | 0% | 0% | 30% | 0% | 70% | 20% |  |  |  |  |  |  |  |  | 
COC(=O)c1nc(C2CC2)nc(NCC2CCCO2)c1Cl (stereo not drawn) [Compound 4-53, 5-Chloro-2-cyclopropyl-6-methoxy carbonyl-4-(tetrahydrofuran-2-ylmethylamino)-pyrimidine] | 40% | 20% | 90% | 30% | 100% | 100% | 0% | 10% | 40% | 0% | 60% | 60% |  |  |  |  |  |  |  |  | 
